Measurements taken from US6777422B2, “Substituted tetrahydroisoquinolines as C5a receptor modulators” (Neurogen Corp., priority 2002, dated 2004).

Target: T1, human C5a receptor (Homo sapiens, UniProt P21730)
T1 construct: endogenous in cells; host or cells: U937 cells differentiated with 1 mM dibutyryl cAMP
T1 sequence (P21730 1-350): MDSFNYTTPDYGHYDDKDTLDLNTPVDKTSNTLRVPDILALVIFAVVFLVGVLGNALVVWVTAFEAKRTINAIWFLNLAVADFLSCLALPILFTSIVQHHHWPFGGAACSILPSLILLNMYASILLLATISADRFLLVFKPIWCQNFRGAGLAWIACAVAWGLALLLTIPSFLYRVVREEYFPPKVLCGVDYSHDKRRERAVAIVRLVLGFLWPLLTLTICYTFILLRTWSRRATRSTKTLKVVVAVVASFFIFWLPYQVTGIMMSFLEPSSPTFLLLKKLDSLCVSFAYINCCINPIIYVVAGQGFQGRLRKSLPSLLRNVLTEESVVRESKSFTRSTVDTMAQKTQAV
Experiment: C5a receptor mediated calcium mobilization assay (Example 20)
Type: cell-based
Conditions: differentiated U937 cells, read-out: Ca2+ (Ki in the standard assay of C5a receptor mediated calcium mobilization)
How it was run: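 Differentiated U937 cells (dibutyryl cAMP, 48 h) loaded with Fluo-3 were pre-incubated 1 h with compound at 1 μM, then challenged with 0.3 nM (final) human recombinant C5a. Calcium response monitored by FLIPR fluorescence (Ex 480/Em 530 nm); antagonism defined as ≥2-fold decrease versus C5a alone.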

Ki, < 1000 nM:
C[C@@H](C(=O)N(Cc1cccc(C(=O)O)c1)C1Cc2ccccc2C1)N1CCc2ccccc2[C@@H]1c1ccccc1Cl [Compound 98, 3{[{(2S)-2-[(1R)-1-(2-chlorophenyl)-3,4-dihydroisoquinolin-2(1H)-yl]propanoyl}(indan-2-yl)amino]methyl}benzoic acid]
O=C(CN1CCc2ccccc2C1c1c(F)cccc1C(F)(F)F)N(Cc1ccccc1F)C1Cc2ccccc2C1 (stereo not drawn) [Compound 99, N-(indan-2-yl)-N-(2-fluorobenzyl)-2-[1-[2-fluoro-6-(trifluoromethyl)phenyl]-3,4-dihydroisoquinolin-2(1H)-yl]acetamide]
Cc1ccccc1C1c2c(F)cccc2CCN1CC(=O)N(Cc1ccccc1F)C1Cc2ccccc2C1 (stereo not drawn) [Compound 100, N-(indan-2-yl)-N-(2-fluorobenzyl)-2-[8-fluoro-1-(2-methylphenyl)-3,4-dihydroisoquinolin-2(1H)-yl]acetamide]
Cc1ccccc1C1c2ccccc2CCN1CC(=O)N(Cc1cc(O)ccc1F)C1Cc2ccccc2C1 (stereo not drawn) [Compound 101, N-(indan-2-yl)-N-(2-fluoro-5-hydroxybenzyl)-2-[1-(2-methylphenyl)-3,4-dihydroisoquinolin-2(1H)-yl]acetamide]
C[C@@H](C(=O)N(Cc1ccccc1F)C1Cc2ccccc2C1)N1CCc2ccccc2[C@@H]1c1c(Cl)cccc1Cl [Compound 102, (2S)-2-[(1R)-1-(2,6-dichlorophenyl)-3,4-dihydroisoquinolin-2(1H)-yl]-N-(indan-2-yl)-N-(2-fluorobenzyl)propanamide]
C[C@@H](C(=O)N(Cc1ccccc1F)C1Cc2ccccc2C1)N1CCc2ccccc2[C@@H]1c1c(F)cccc1Cl [Compound 103, (2S)-2-[(1R)-1-(2-chloro-6-fluorophenyl)-3,4-dihydroisoquinolin-2(1H)-yl]-N-(indan-2-yl)-N-(2-fluorobenzyl)propanamide]
C[C@@H](C(=O)N(CCc1ccccc1F)Cc1ccc(O)cc1)N1CCc2ccccc2[C@@H]1c1ccccc1Cl [Compound 104, (2S)-2-[(1R)-1-(2-chlorophenyl)-3,4-dihydroisoquinolin-2(1H)-yl]-N-[2-(2-fluorophenyl)ethyl]-N-(4-hydroxybenzyl)propanamide]
C[C@@H](C(=O)N(Cc1cccc(C(=O)N(C)C)c1)C1Cc2ccccc2C1)N1CCc2ccccc2[C@@H]1c1ccccc1Cl [Compound 105, 3-{[{(2S)-2-[(1R)-1-(2-chlorophenyl)-3,4-dihydroisoquinolin-2(1H)-yl]propanoyl}(indan-2-yl)amino]methyl}-N,N-dimethylbenzamide]
Cc1cc(CN(C(=O)[C@H](C)N2CCc3ccccc3[C@@H]2c2ccccc2Cl)C2Cc3ccccc3C2)cc(C)c1O [Compound 106, (2S)-2-[(1R)-1-(2-chlorophenyl)-3,4-dihydroisoquinolin-2(1H)-yl]-N-(indan-2-yl)-N-(4-hydroxy-3,5-dimethylbenzyl)propanamide]
C[C@@H](C(=O)N(CCc1ccccc1)CCc1ccccc1F)N1CCc2ccccc2[C@@H]1c1ccccc1Cl [Compound 108, (2S)-2-[(1R)-1-(2-chlorophenyl)-3,4-dihydroisoquinolin-2(1H)-yl]-N-[2-(2-fluorophenyl)ethyl]-N-(2-phenylethyl)propanamide]
C[C@@H](C(=O)N(CCc1ccccc1F)Cc1ccccc1F)N1CCc2ccccc2[C@@H]1c1ccccc1Cl [Compound 109, (2S)-2-[(1R)-1-(2-chlorophenyl)-3,4-dihydroisoquinolin-2(1H)-yl]-N-(2-fluorobenzyl)-N-[2-(2-fluorophenyl)ethyl] propanamide]
Cc1cc(CN(C(=O)[C@H](C)N2CCc3ccccc3[C@@H]2c2c(Cl)cccc2Cl)C2Cc3ccccc3C2)cc(C)c1O [Compound 110, (2S)-2-[(1R)-1-(2,6-dichlorophenyl)-3,4-dihydroisoquinolin-2(1H)-yl]-N-(indan-2-yl)-N-(4-hydroxy-3,5-dimethylbenzyl) propanamide]
C[C@@H](C(=O)N(Cc1cccc(C#N)c1)C1Cc2ccccc2C1)N1CCc2ccccc2[C@@H]1c1ccccc1Cl [Compound 111, (2S)-2-[(1R)-1-(2-chlorophenyl)-3,4-dihydroisoquinolin-2(1H)-yl]-N-(3-cyanobenzyl)-N-(indan-2-yl)propanamide]
C[C@@H](C(=O)N(Cc1cccc([N+](=O)[O-])c1)C1Cc2ccccc2C1)N1CCc2ccccc2[C@@H]1c1ccccc1Cl [Compound 112, (2S)-2-[(1R)-1-(2-chlorophenyl)-3,4-dihydroisoquinolin-2(1H)-yl]-N-(indan-2-yl)-N-(3-nitrobenzyl)propanamide]
Cc1ccccc1[C@H]1c2ccccc2CCN1CC(=O)N(Cc1cccc(O)c1)C1Cc2ccccc2C1 [Compound 113, N-(indan-2-yl)-N-(3-hydroxybenzyl)-2-[(1S)-1-(2-methylphenyl)-3,4-dihydroisoquinolin-2(1H)-yl]acetamide]
C[C@@H](C(=O)N(Cc1cccc(O)c1)C1Cc2ccccc2C1)N1CCc2ccccc2[C@@H]1c1ccccc1Cl [Compound 114, (2S)-2-[(1R)-1-(2-chlorophenyl)-3,4-dihydroisoquinolin-2(1H)-yl]-N-(indan-2-yl)-N-(3-hydroxybenzyl)propanamide]
C[C@@H](C(=O)N(Cc1cccc(O)c1F)C1Cc2ccccc2C1)N1CCc2ccccc2[C@@H]1c1ccccc1Cl [Compound 115, (2S)-2-[(1R)-1-(2-chlorophenyl)-3,4-dihydroisoquinolin-2(1H)-yl]-N-(indan-2-yl)-N-(2-fluoro-3-hydroxybenzyl)propanamide]
Cc1ccccc1C1c2c(Cl)cccc2CCN1CC(=O)N(Cc1ccccc1F)C1Cc2ccccc2C1 (stereo not drawn) [Compound 116, 2-[8-chloro-1-(2-methylphenyl)-3,4-dihydroisoquinolin-2(1H)-yl]-N-(indan-2-yl)-N(2-fluorobenzyl)acetamide]
O=C(CN1CCc2cccc(Cl)c2C1c1c(F)cccc1Cl)N(Cc1ccccc1F)C1Cc2ccccc2C1 (stereo not drawn) [Compound 117, 2-[8-chloro-1-(2-chloro-6-fluorophenyl)-3,4-dihydroisoquinolin-2(1H)-yl]-N-(indan-2-yl)-N-(2-fluorobenzyl)acetamide]
C[C@@H](C(=O)N(CCc1ccc(O)cc1)Cc1ccccc1F)N1CCc2ccccc2[C@@H]1c1cccc2ccccc12 [Compound 118, (2S)-N-(2-fluorobenzyl)-N-[2-(4-hydroxyphenyl)ethyl]-2-[(1R)-1-(1-naphthyl)-3,4-dihydroisoquinolin-2(1H)-yl]propanamide]
C[C@@H](C(=O)N(CCc1c[nH]c2ccccc12)Cc1ccccc1F)N1CCc2ccccc2[C@@H]1c1cccc2ccccc12 [Compound 119, (2S)-N-(2-fluorobenzyl)-N-[2-(1H-indol-3-yl)ethyl]-2-[(1R)-1-(1-naphthyl)-3,4-dihydroisoquinolin-2(1H)-yl]propanamide]
C[C@@H](C(=O)N(Cc1cccc(OC(F)F)c1F)C1Cc2ccccc2C1)N1CCc2ccccc2[C@@H]1c1ccccc1Cl [Compound 120, (2S)-2-[(1R)-1-(2-chlorophenyl)-3,4-dihydroisoquinolin-2(1H)-yl]-N-[3-(difluoromethoxy)-2-fluorobenzyl]-N-(indan-2-yl)propanamide]
COc1ncccc1CN(C(=O)[C@H](C)N1CCc2ccccc2[C@@H]1c1cccc2ccccc12)C1Cc2ccccc2C1 [Compound 121, (2S)-N-(indan-2-yl)-N-[(2-methoxypyridin-3-yl)methyl]-2-[(1R)-1-(1-naphthyl)-3,4-dihydroisoquinolin-2(1H)-yl]propanamide]
COc1ncccc1CN(Cc1ccccc1F)C(=O)[C@H](C)N1CCc2ccccc2[C@@H]1c1cccc2ccccc12 [Compound 122, (2S)-N-(2-fluorobenzyl)-N-[(2-methoxypyridin-3-yl)methyl]-2-[(1R)-1-(1-naphthyl)-3,4-dihydroisoquinolin-2(1H)-yl]propanamide]
O=C(CN1CCc2ccccc2C1c1ccc(O)cc1)N(Cc1ccccc1F)C1Cc2ccccc2C1 (stereo not drawn) [Compound 123, N-(indan-2-yl)-N-(2-fluorobenzyl)-2-[1-(4-hydroxyphenyl)-3,4-dihydroisoquinolin-2(1H)-yl]acetamide]
COc1cccc(CN(C(=O)[C@H](C)N2CCc3ccccc3[C@@H]2c2cccc3ccccc23)C2Cc3ccccc3C2)n1 [Compound 124, (2S)-N-(indan-2-yl)-N-[(6-methoxypyridin-2-yl)methyl]-2-[(1R)-1-(1-naphthyl)-3,4-dihydroisoquinolin-2(1H)-yl]propanamide]
COc1cccc(CN(Cc2ccccc2F)C(=O)[C@H](C)N2CCc3ccccc3[C@@H]2c2cccc3ccccc23)n1 [Compound 125, (2S)-N-(2-fluorobenzyl)-N-[(6-methoxypyridin-2-yl)methyl]-2-[(1R)-1-(1-naphthyl)-3,4-dihydroisoquinolin-2(1H)-yl]propanamide]
